# Assay results from publication PMC3375280 (PLoS ONE, 2012).
# Substitutions are numbered along the chain they refer to.
# What was measured:
# [1] = target: T1, AT1 C76A/L112C/C289A mutant receptor (Rattus norvegicus, UniProt P25095, C289A/C76A/L112C); assay: substituted cysteine accessibility mapping (SCAM), C76A/L112C/C289A; type: binding; set-up: key to Cysteine accessibility at Leu112 compared to ligand (-): Less and More indicate that the AT1 receptor is less or more accessible to the ligand pocket, respectively; Less and More indicate that the AT1 receptor is less or more accessible to the ligand pocket, respectively; No change; details: for % inhibition of 125I-[Sar1,Ile8]Ang II binding by MTSEA+ after ligand pre-incubation: C76A/L112C/C289A mutant, 1 µM ligand, comparison in words; for Cysteine accessibility at Leu112 compared to ligand (-): SCAM, 1 µM ARB, […] MTSEA+, COS1 membranes
# T1 construct: expressed in transfected cells; host or cells: COS1
# T1 sequence (P25095 1-359 C76A/L112C/C289A): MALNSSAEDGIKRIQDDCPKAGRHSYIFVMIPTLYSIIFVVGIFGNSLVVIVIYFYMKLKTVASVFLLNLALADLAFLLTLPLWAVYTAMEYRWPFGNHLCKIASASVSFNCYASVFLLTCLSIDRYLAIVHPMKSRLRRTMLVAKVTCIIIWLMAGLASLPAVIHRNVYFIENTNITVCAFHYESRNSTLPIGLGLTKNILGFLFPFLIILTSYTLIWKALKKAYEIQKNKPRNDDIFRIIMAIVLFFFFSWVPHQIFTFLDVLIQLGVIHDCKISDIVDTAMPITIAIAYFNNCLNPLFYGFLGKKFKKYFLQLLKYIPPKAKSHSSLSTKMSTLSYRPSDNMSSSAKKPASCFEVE
# Text: As we reported previously, the percentage (%) inhibition of ^125I-[Sar^1, Ile^8] AngII binding by methanethiosulphonate ethyl-ammonium (MTSEA^+) reagent was approximately 30% on AT1 receptor, since Cys^76 in TM2 was accessible to water within the ligand pocket. In addition, mechanical stretching increased the accessibility of Cys^289 by inducing a change in the conformation of TM7 [22]. To differentiate between single and multiple movements of one or more native cysteines, we created TM3 residues that were substituted with cysteine one at a time from […] to Phe^117 using the C76A/C289A mutant genetic background and evaluated each triple mutant for MTSEA sensitivity.
# Figure 3 Changes in cysteine accessibility in COS1 cells expressing C76A/C289A mutant receptors in which the transmenbrane 3 residues from Ala^106 to Phe^117, except for position 113, were successively replaced by cysteine. 1 µM of ARBs, n=4–9, *p<0.05 vs. no treatment. #p<0.05 vs. C76A/C289A.
# The SCAM method has been used to probe relative changes in the conformation of constitutively active AT1 receptor [20]–[22] and other GPCRs, [30] by validating the presence of Cys residues within the ligand pocket. We used a highly reactive, sulfhydryl-specific reaction with methanethiosulfonyl ethyl-ammonium (MTSEA^+), which reacts a billion times faster with water-exposed and ionized Cys than with lipid-exposed and un-ionized Cys. In this reaction, a positively charged sulfonylmethylammonium group is added to a water-exposed Cys. Aliquots of cell membranes are incubated with or without ARBs for 20 min in phosphate buffer at room temperature. The membranes are then diluted with same buffer and centrifuged. After washout the cell membranes, the membranes are incubated with 2.5 mM MTSEA^+ at room temperature for 2 min in HEPES buffer (pH7.4). The Membranes are then diluted with same buffer to stop the reaction and centrifuged. One hundred µl aliquots were used to assay for ^125I-[Sar^1,Ile^8]Ang II binding. The fractional inhibition is calculates 1 − [(specific binding after MTX reagent) / (specific binding without reagent)].
# [2] = target: T2, AT1 F117A mutant receptor (Rattus norvegicus, UniProt P25095, F117A); assay: competition binding, F117A mutant; details: for Kd ratio relative to WT (in parentheses): F117A / WT; for Kd: F117A, COS1 membranes, read-out: Binding affinity (Kd)
# T2 construct: expressed in transfected cells; host or cells: COS1
# T2 sequence (P25095 1-359 F117A): T1 sequence (P25095 1-359 C76A/L112C/C289A) with A76C, C112L, F117A, A289C
# Description: (§1) The Kd and Bmax values of receptor binding were determined by ^125I-[Sar^1, Ile^8] […] Membranes expressing the WT or mutant AT1 receptors were incubated with 100 pM ^125I-[Sar^1, Ile^8] […] The binding reaction was terminated by filtering the incubation mixture through Whatman GF/C glass filters, and the residues were extensively washed further with binding buffer. The bound ligand fraction was determined from the counts per minute (cpm) remaining on the membrane. Binding kinetics values were determined as previously described.
# [3] = target: T3, AT1 C76A/V108C/C289A mutant receptor (Rattus norvegicus, UniProt P25095, C289A/C76A/V108C); assay: competition binding, C76A/V108C/C289A mutant; details: for Kd ratio relative to WT (in parentheses): C76A/V108C/C289A / WT; for Kd: C76A/V108C/C289A, COS1 membranes, read-out: Binding affinity (Kd)
# T3 construct: expressed in transfected cells; host or cells: COS1
# T3 sequence (P25095 1-359 C76A/V108C/C289A): T1 sequence (P25095 1-359 C76A/L112C/C289A) with V108C, C112L
# Description: as §1
# [4] = target: T4, wild-type (WT) AT1 receptor (Rattus norvegicus, UniProt P25095); assay: inositol phosphate (IP) production in COS1 cells expressing WT AT1 receptor; details: 1 µM compound, vs basal IP production
# T4 sequence (P25095 1-359): T1 sequence (P25095 1-359 C76A/L112C/C289A) with A76C, C112L, A289C
# Description: The test compounds were added 1 h before the measurement of IP.
# The WT and mutant AT1 receptors were transiently transfected into COS1 cells using Lipofectamine 2000 liposomal reagent (Roche Applied Science) according to the manufacturer’s instructions.
# Cells expressing the WT and mutant AT1 receptors were incubated for 30 minutes at 22°C with or without the indicated concentrations of ARBs. The cells were washed-out once with the use of excess cold HBSS, and used in an IP production study. Total soluble IP was measured by the perchloric acid extraction method, as described previously [16].
Cysteine accessibility at Leu112 compared to ligand (-) [1],Cysteine accessibility at Leu112 compared to ligand (-) ([1]; listed as olmesartan),Kd ratio relative to WT (in parentheses) [2],Kd [2],Kd ratio relative to WT (in parentheses) [3],Kd [3],Pharmacological behaviour toward IP production (agonism / neutral antagonism / inverse agonism) [4],SMILES,"% inhibition of 125I-[Sar1,Ile8]Ang II binding by MTSEA+ after ligand pre-incubation [1]"
Less,less accessibility,1.1 fold,2.5 ± 1.4 nM,14 fold,32 ± 1 nM,inverse agonist,"CCCc1nc(C(C)(C)O)c(C(=O)O)n1Cc1ccc(-c2ccccc2-c2nnn[nH]2)cc1 [Olmesartan, olmesartan, reference compound]",significantly lower than that with ligand (-)
,,1.1 fold,54 ± 19 nM,8 fold,391 ± 54 nM,agonism,CCCc1nc(C(C)(C)O)c(C(N)=O)n1Cc1ccc(-c2cc(Cc3ccc(O)cc3)ccc2-c2nnn[nH]2)cc1 [R794847],significantly lower than those with olmesartan and R239470
,,1.9 fold,1.5 ± 0.04 nM,13 fold,10 ± 2 nM,neutral antagonist,CCCc1nc(C(C)(C)O)c(C(N)=O)n1Cc1ccc(-c2ccccc2-c2nnn[nH]2)cc1 [R239470],significantly lower than that with ligand (-)
